The target of data set [1] is T1, mushroom tyrosinase (Agaricus bisporus, UniProt C7FF04).
T1 construct: purchased Sigma Aldrich (St. Louis, MO, USA)
Put plainly: In vitro mushroom tyrosinase inhibition assay (L-DOPA, dopachrome at 475 nm). The data set is classed as biochemical.
Target sequence in this assay (C7FF04 1-392 limits assumed): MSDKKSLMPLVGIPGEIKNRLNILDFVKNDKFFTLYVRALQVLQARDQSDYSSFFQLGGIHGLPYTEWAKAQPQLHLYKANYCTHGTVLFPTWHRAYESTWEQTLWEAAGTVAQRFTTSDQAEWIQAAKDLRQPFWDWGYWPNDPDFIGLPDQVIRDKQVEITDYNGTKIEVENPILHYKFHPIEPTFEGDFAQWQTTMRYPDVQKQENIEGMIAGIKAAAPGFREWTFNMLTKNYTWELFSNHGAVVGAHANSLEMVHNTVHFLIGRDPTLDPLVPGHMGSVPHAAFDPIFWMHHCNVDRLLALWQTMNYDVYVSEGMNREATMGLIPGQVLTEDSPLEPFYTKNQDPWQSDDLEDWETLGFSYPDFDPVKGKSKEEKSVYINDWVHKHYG
Procedure: In vitro mushroom tyrosinase (Sigma Aldrich, St. Louis, MO, USA) inhibition assay was performed, following our already reported method [52]. In detail, 140 µL of phosphate buffer (20 mM, pH 6.8), 20 µL of mushroom tyrosinase (30 U/mL) and 20 µL of the inhibitor solution were placed in the wells of a 96-well microplate. After pre-incubation for 10 min at room temperature, 20 µL of L-DOPA (3,4-dihydroxyphenylalanine, Sigma Aldrich, St. Louis, MO, USA) (0.85 mM) was added and the assay plate was further incubated at 25 °C for 20 min. Afterward the absorbance of dopachrome was measured at 475 nm using a microplate reader (OPTIMax, Tunable, Sunnyvale, CA, USA). All of the compounds were dissolved in DMSO and blank tests were performed with solvent DMSO. The IC50 values were reported after subtracting the value of DMSO. […] Each concentration was analyzed in three independent experiments. The IC50 values were determined by the data analysis and graphing software Origin 8.6, 64-bit.
The tyrosinase %age inhibition was determined by using the following formula:Inhibition (%) = [(B − S)/B] × 100(1)
Here, the absorbance of the blank and inhibitor are represented by B and S respectively.

The target of data set [2] is T2, human tyrosinase (Homo sapiens, UniProt P14679).
T2 construct: endogenous in cells; host or cells: A375 human melanoma cells (ATCC), induced with L-tyrosine; sonicated pellet, 10,000 x g supernatant
T2 sequence (P14679 19-529): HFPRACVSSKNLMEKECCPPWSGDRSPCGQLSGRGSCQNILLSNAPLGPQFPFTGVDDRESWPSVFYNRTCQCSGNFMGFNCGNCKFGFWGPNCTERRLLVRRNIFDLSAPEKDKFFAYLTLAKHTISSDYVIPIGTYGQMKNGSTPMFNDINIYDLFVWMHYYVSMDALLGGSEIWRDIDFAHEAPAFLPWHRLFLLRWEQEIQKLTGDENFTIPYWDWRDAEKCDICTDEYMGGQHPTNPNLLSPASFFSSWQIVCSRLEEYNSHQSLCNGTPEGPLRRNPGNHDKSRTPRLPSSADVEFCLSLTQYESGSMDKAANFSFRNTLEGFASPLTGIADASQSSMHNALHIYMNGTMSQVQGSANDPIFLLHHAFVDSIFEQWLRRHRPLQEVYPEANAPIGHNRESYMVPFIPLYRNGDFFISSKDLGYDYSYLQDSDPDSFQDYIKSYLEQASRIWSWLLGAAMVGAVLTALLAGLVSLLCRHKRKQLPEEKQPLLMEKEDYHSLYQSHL
In words: Human tyrosinase inhibition assay (enzyme prepared from A375 human melanoma cells). The data set is classed as biochemical. Particulars: L-DOPA, 50 µg/mL (b9).
Procedure: A375 human melanoma cells were obtained from American Type Culture Collection (ATCC; Rockville, MD, USA). A375 cells were grown in Dulbecco’s modified Eagle’s medium (DMEM; Invitrogen, Burlington, ON, Canada) supplemented with L-glutamine, 10% (v/v) fetal bovine serum (FBS; Invitrogen), 50 µg/mL streptomycin (Sigma Aldrich, St. Louis, MO, USA), 50 units/mL penicillin (Sigma Aldrich) and supplemented with 200 µM of L-tyrosine for tyrosinase induction. Cell cultures were incubated at 37 °C, in a humidified atmosphere of 5% CO2. Cells were scraped out from the tissue culture plate with phosphate-buffer saline (PBS) and were homogenized at 4 °C in PBS. The homogenate was centrifuged at 1000× g for 10 min. The precipitate was sonicated in PBS on ice and the mixture was centrifuged at 10,000× g for 30 min. The supernatant containing tyrosinase was used for the measurement of the inhibitory effects.
The assay reaction mixture (200 µL) contained 3.3 mM L-DOPA in 0.33 M phosphate buffer (pH 7.0) and the enzyme in the presence and absence of inhibitors. Fifteen or twenty units of tyrosinase were used to determine the % inhibition. The reaction mixture was incubated at 37 °C for 10 min and the absorbance was recorded at 475 nm using a microplate reader (OPTI Max, Tunable). One unit of the enzyme was defined as the amount of enzyme which increases the absorbance value by 0.001 at 475 per minute under the same conditions as described above.

The target in data set [3] is T1, mushroom tyrosinase. In words: Kinetic analysis of the inhibition of mushroom tyrosinase (Lineweaver-Burk plots). The data set is classed as biochemical. As to conditions: for Inhibition Type: Lineweaver-Burk plots; for Ki: secondary plot of slope. The method, then: Among the synthesized Ph derivatives Ph5, Ph6 and Ph9 were selected to determine their inhibition type and inhibition constants on mushroom tyrosinase activity. The potential of these derivatives to inhibit the free enzyme and enzyme–substrate complex was determined in terms of enzyme inhibitor (EI) and enzyme–substrate-inhibitor (ESI) constants respectively. […] Meanwhile, in the case of compound Ph6, the Lineweaver–Burk plot gave a family of straight lines, all of which intersected at the same point on the x-axis Figure 2A. […] It is worth mentioning here that the enzyme inhibitory kinetics were performed with a more efficient natural substrate L-DOPA (L-3,4-dihydroxyphenylalanine). Ph5 is a 3,5-dihydroxyl-substituted benzoic acid derivative and Ph9 is 2,4-dihydroxyl-substituted cinnamic acid derivative whereas, Ph6 is an unsubstituted cinnamic acid analogue.
A series of experiments were performed to calculate the inhibitory kinetics of compounds Ph5, Ph6 and Ph9 by following the already reported method. […] The concentration of substrate L-DOPA was between 0.125 to 2 mM in all kinetic studies. Pre-incubation time and measurement time were the same as discussed in mushroom tyrosinase inhibition assay protocol. Maximal initial velocity was determined from initial linear portion of absorbance up to five minutes after addition of enzyme at a 30 s interval. The inhibition type on the enzyme was determined by Lineweaver–Burk plots of inverse velocities (1/V) versus the inverse of substrate concentration 1/[S] mM^−1.
Target sequence in this assay (C7FF04 1-392): as the sequence (C7FF04 1-392 limits assumed) above

In data set [4] the target is tyrosinase. The arrangement: method as in PMID 24191339. Particulars: cited from earlier work.
[5] abbreviates: substrate L-DOPA, pH 6.8, 25 °C, read-out: Mushroom Tyrosinase IC50 ± SEM.
Setting [6] is: mushroom tyrosinase, L-DOPA, read-out: Ki (enzyme inhibitor constant).

As a reminder, the IC50 is the midpoint of a concentration-inhibition curve. A word on the inhibition: it is the drop in the measured response relative to a control, in per cent. A lower inhibition goes with a response near the control. By Ki is commonly meant the dissociation constant of the complex between target and ligand, obtained from inhibition or displacement. As usually defined, the melting point is the temperature of the solid-liquid transition.

The structures appear in SMILES notation. Values joined by “and” are separate entries in the source; they are usually repeats but may differ in a detail not shown here. Equal entries are not always repeated. “Also recorded” adds a separate entry of the source. Where two headings read alike, the source gives them in different places.

In the case of `COc1ccc(CCNC(=O)COC(=O)c2cccc(O)c2)cc1` [Ph1, 2-((4-methoxyphenethyl)amino)-2-oxoethyl 3-hydroxybenzoate], the IC50 in data set [1] (setting [5]) came to 4070 ± 154 nM. In data set [2], this compound registered an inhibition of 75.6 ± 5.65%.

`COc1ccc(CCNC(=O)COC(=O)c2ccc(O)cc2)cc1` [Ph2, 2-((4-methoxyphenethyl)amino)-2-oxoethyl 4-hydroxybenzoate]: the IC50 in data set [1] (setting [5]) worked out at 463 ± 17 nM. Besides, the inhibition in data set [2] was found to be 73 ± 5.35%.

On to `COc1ccc(CCNC(=O)COC(=O)c2ccc(O)cc2O)cc1` [Ph3, 2-((4-methoxyphenethyl)amino)-2-oxoethyl 2,4-dihydroxybenzoate], for which the IC50 in data set [1] (setting [5]) stood at 839 ± 38.1 nM. Also, the inhibition in data set [2] stood at 79.7 ± 6.61%.

With `COc1ccc(CCNC(=O)COC(=O)c2ccc(O)c(O)c2)cc1` [Ph4, 2-((4-methoxyphenethyl)amino)-2-oxoethyl 3,4-dihydroxybenzoate], the IC50 in data set [1] (setting [5]) is 329 ± 21 nM. Besides, the inhibition in data set [2] was 82.2 ± 7.04%.

Turning to `COc1ccc(CCNC(=O)COC(=O)c2cc(O)cc(O)c2)cc1` [Ph5, 2-((4-methoxyphenethyl)amino)-2-oxoethyl 3,5-dihydroxybenzoate], the IC50 in data set [1] (setting [5]) is 231 ± 7.8 nM. Further, the inhibition in data set [2] came to 64.8 ± 3.84%. Moreover, the values for the Vmax in data set [3] (inhibitor dose 0.2 µM) and in data set [3] (inhibitor dose 0.4 µM) were 8.266 × 10^−6 ∆A/s and 5.242 × 10^−6 ∆A/s, respectively. For the same compound, the “Inhibition Type” value in data set [3] (mushroom tyrosinase, L-DOPA) was “mixed-type inhibition”. In addition, in data set [3] (mushroom tyrosinase, L-DOPA, secondary plot of intercept), the “Ki′ (enzyme substrate inhibitor constant)” value turned out to be 475 nM. Besides, the Ki in data set [3] (setting [6]) was 219 nM.

The compound `COc1ccc(CCNC(=O)COC(=O)C=Cc2ccccc2)cc1` [Ph6, 2-((4-methoxyphenethyl)amino)-2-oxoethyl cinnamate] displayed a melting point of 103 to 105 °C. The same compound returned an IC50 in data set [1] (Mushroom Tyrosinase IC50 ± SEM, substrate L-DOPA, pH 6.8, 25 °C) of 2.04 ± 0.087 nM. In data set [1] (Mushroom tyrosinase IC50, as printed in the abstract), this compound had an IC50 of 2.1 nM. Moreover, in data set [2], the “Human Tyrosinase (% Inhibition)” value turned out to be 92.24 ± 7.985% and the inhibition at 50 µg/mL worked out at 92.2%. The affinity in data set [3] (Ki (enzyme inhibitor constant), mushroom tyrosinase, L-DOPA) corresponds to a Ki of 2.3 nM. The Vmax in data set [3] (inhibitor dose 0.001 µM) was 7.060 × 10^−6 ∆A/s. Moreover, the Vmax in data set [3] (inhibitor dose 0.002 µM) is listed as 6.929 × 10^−6 ∆A/s. In addition, in data set [3] (mushroom tyrosinase, L-DOPA), the “Inhibition Type” value was “non-competitive inhibitor; also recorded: non-competitive inhibition”.

As for `COc1ccc(CCNC(=O)COC(=O)/C=C/c2ccccc2O)cc1` [Ph7, 2-((4-methoxyphenethyl)amino)-2-oxoethyl (E)-3-(2-hydroxyphenyl)acrylate], the melting point was in the range of 111 to 113 °C. The IC50 in data set [1] (setting [5]) was 104 ± 3.8 nM. The inhibition in data set [2] was found to be 85.6 ± 6.04%.

As to `COc1ccc(CCNC(=O)COC(=O)/C=C/c2ccc(O)cc2)cc1` [Ph8, 2-((4-methoxyphenethyl)amino)-2-oxoethyl(E)-3-(4-hydroxyphenyl)acrylate], the melting point is 119 to 121 °C. The IC50 in data set [1] (setting [5]) came out at 923 ± 53 nM. This compound also yielded an inhibition in data set [2] of 86.3 ± 6.54%.

Regarding `COc1ccc(CCNC(=O)COC(=O)/C=C/c2ccc(O)cc2O)cc1` [Ph9, 2-((4-methoxyphenethyl)amino)-2-oxoethyl(E)-3-(2,4-dihydroxyphenyl)acrylate], the IC50 was 0.059 nM in data set [1] (read-out: Mushroom tyrosinase IC50); 0.06 nM and 0.059 nM and 0.0595 nM in data set [1] (setting [5]). For the same compound, the “Human Tyrosinase (% Inhibition)” value in data set [2] is 94.59 ± 8.071%. The compound also came in with an inhibition at 50 µg/mL in data set [2] of 94.6%. Also, the results for the Vmax in data set [3] (inhibitor dose 0.00003 µM), in data set [3] (inhibitor dose 0.00012 µM) and in data set [3] (inhibitor dose 0.00015 µM) were 4.666 × 10^−6 ∆A/s, 2.666 × 10^−6 ∆A/s and 4.285 × 10^−6 ∆A/s, respectively. Besides, in data set [3] (mushroom tyrosinase, L-DOPA), the “Inhibition Type” value is given as “mixed-type inhibition”. Also, the Ki in data set [3] (setting [6]) is 0.09 nM and 0.093 nM.

In the case of `COc1ccc(CCNC(=O)COC(=O)/C=C/c2ccc(Cl)cc2)cc1` [Ph10, 2-((4-methoxyphenethyl)amino)-2-oxoethyl (E)-3-(4-chlorophenyl)acrylate], the IC50 in data set [1] (setting [5]) stood at 452 ± 17.1 nM. The compound also showed an inhibition in data set [2] of 79.2 ± 5.95%.

Turning to `O=c1oc2c(O)c(O)cc3c(=O)oc4c(O)c(O)cc1c4c23` [ellagic acid], the “Tyrosinase inhibitory activity IC50” value in data set [4] (substrate L-DOPA) is reported as 151.1 µg/mL.

Turning to `O=c1c(O)c(-c2ccc(O)c(O)c2)oc2cc(O)c(O)c(O)c12` [quercetagetin], the “Tyrosinase inhibitory activity IC50” value is 128.41 µg/mL in data set [4] (substrate L-DOPA) and 89.31 µg/mL in data set [4] (substrate L-tyrosine).

Values taken from paper PMC8122972, “Methoxy-Substituted Tyramine Derivatives Synthesis, Computational Studies and Tyrosinase Inhibitory Kinetics” (Molecules, 2021).
